# From patent US20230348401A1, “Inhibitors of Glucose-6-phosphate Dehydrogenase and Uses Thereof” (The Trustees of Princeton University, priority 2020, published 2023)
# Legend:
# colony formation = test: Colony formation; format: cell-based; conditions: dose-response; rescued by exogenous antioxidants
# CD8+ and CD4+ T cells = test: Intracellular ROS (CellROX green); format: cell-based, mouse; conditions: two hours
# Description: For measuring intracellular ROS levels, cells were incubated for 2 hours in the presence of increasing concentrations of G6PDi-1 and then stained for ROS and viability using CellROX Green Flow Cytometry Assay Kit following manufacturer instructions. In some experiments, n-acetyl cysteine (1 mM), galactose oxidase (0.045 U/mL) + galactose (500 µM), or potassium superoxide (0.5 µg/mL) were added to the culture media at the same time the drug and/or PMA and ionomycin were added. All flow cytometry was analyzed with an LSR II (BDbiosciences) using standard filter sets and FCS express 6 flow cytometry software (De Novo Software).
# [1] = tested on: active CD8+ or CD4+ cells; test: Intracellular cytokines in active T cells after PMA and ionomycin; format: cell-based, mouse
# Description: To analyze intracellular cytokines, active T cells were re-stimulated with PMA (20 ng/ml) and ionomycin (1 µg/ml) in the presence of GolgiStop and increasing concentrations of G6PDi-1. After a 6-hour incubation period, cells were collected, washed with PBS and stained with the viability dye Live/Dead Aqua. Cells were then washed with staining buffer and stained for surface markers: CD4 (APC-Cy7, clone RM4-5,), CD8a (PerCP-Cy5.5, clone 53-6.7). Cells were then fixed and permeabilized and stained for intracellular cytokines: IFN-γ (FITC, clone XMG1.2), TNFα (PE-Cyanine7, clone MP6-XT22) and IL-2 (PE, clone JES6-5H4). To analyze intracellular cytokines, mature macrophages were stimulated with LPS (100 ng/mL) + IFNγ (20 ng/mL) in the presence of GolgiStop and increasing concentrations of G6PDi-1. After a 6-hour incubation period, cells were collected, washed with PBS and stained with the viability dye Live/Dead Aqua. Cells were then fixed and permeabilized and stained for intracellular cytokines: TNFα (PE-Cyanine7, clone MP6-XT22) and IL-10 (V450, clone JES5-16E3).
# [2] = tested on: CD4+ regulatory T cells (Treg); test: Treg assays; format: cell-based; conditions: CD3/CD28 in the presence of TGF-β
# Description: Spleen and peripheral lymph nodes were harvested and processed to single cell suspensions of lymphocytes. Red blood cells were removed with hypotonic lysis. We used magnetic beads (Miltenyi Biotec, San Diego, CA) for isolation of Tconv (CD4^+CD25^-), Treg (CD4^+CD25^+), and antigen presenting cells (CD90.2^-). For cell culture medium, we used RPMI 1640 medium supplemented with 10% fetal bovine serum (FBS), penicillin (100 U/mL), streptomycin (100 µg/mL), and 55 µM β-mercaptoethanol Treg suppression and iTreg polarization were conducted as previously reported. For Treg suppression assays, Tconv were purified and stimulated with irradiated antigen presenting cells plus CD3ε mAb (1 µg/mL, BD Pharmingen). To assess proliferation, Tconv cells were labeled with carboxyfluorescein succinimidyl ester (CFSE), and Treg cells with CellTrace Violet. After 72 h, proliferation of Tconv and Treg cells was determined by flow cytometric analysis of CFSE and CellTrace Violet dilution, respectively. For conversion to Foxp3^+ Tregs, Tconv cells were incubated for 3-5 days with CD3ε/CD28 mAb beads, plus TGF-β (3 ng/mL) and IL-2 (25 U/mL), and analyzed by flow cytometry for Foxp3+ iTreg. Flow cytometry data was captured using Cytoflex (Beckman Coulter, Brea, CA) and analyzed using the FlowJo 10.2 software.
# mouse neutrophils = test: Neutrophil oxidative burst assay (mouse); format: cell-based; conditions: PMA, 50 µM
# Description: Murine neutrophils were isolated from 8-12-week old C56BL/6 mice. Mice were bred and maintained according to the University of Wisconsin Institutional Animal Care and Use Committee (Protocol No. M006219). Mice were euthanized by cervical dislocation, and bone marrow cells were harvested from femur and tibia within 30 minutes. Cell suspensions were passed through a 70-µm cell strainer. Neutrophils were prepared using a negative selection kit (EasySep Mouse Neutrophil Enrichment Kit, Stem Cell Technologies), following the manufacturer’s instructions. Cells were cultured in RPMI 1640 media supplemented with 10% heat-inactivated FBS, 100 U/ml penicillin, 100 µg/ml streptomycin, 5 mM HEPES, and 2 mM EDTA. To stimulate neutrophils, 100 nM phorbol 12-myristate 13-acetate (PMA) (Cayman Chemical) was added to the media; metabolites were extracted after 30 minutes of stimulation.
# Suspended neutrophils were plated in culture wells pre-coated with CELL-TAK™ (Corning), spun at 200 × g for 1 minute with minimal acceleration/deceleration, and then incubated for 1 hour at 37° C. Murine neutrophils were plated at 2×10^5 cells/well in RPMI 1640 media without sodium bicarbonate. […] Oxidative burst was stimulated with PMA (100 nM, Cayman Chemical); oxygen consumption rate was measured using the XF-96e extracellular flux analyzer (Seahorse Bioscience).
# G6PD = G6PD (Homo sapiens, UniProt P11413); test: G6PD enzymatic activity by LC-MS (6-pg production); format: biochemical; design: Partially truncated human G6PD (residues 28-515, Uniprot ID P11413); His6 with thrombin cleavage site (N, cleaved yes); made in house; host or cells: Escherichia coli BL21(DE3)pLysS; conditions: orthogonal LC-MS assay
# Description: Aliquots of reaction mixture were collected at indicated time points and rapidly quenched by diluting (1:5) into methanol precooled on dry ice. The mixtures were centrifuged at 13,000 rcf for 20 minutes at 4° C., and the resulting supernatants were diluted (1:20) into 40:40:20 methanol/ acetonitrile/ water and analyzed by LC-MS.
# Chain of G6PD (P11413 28-515): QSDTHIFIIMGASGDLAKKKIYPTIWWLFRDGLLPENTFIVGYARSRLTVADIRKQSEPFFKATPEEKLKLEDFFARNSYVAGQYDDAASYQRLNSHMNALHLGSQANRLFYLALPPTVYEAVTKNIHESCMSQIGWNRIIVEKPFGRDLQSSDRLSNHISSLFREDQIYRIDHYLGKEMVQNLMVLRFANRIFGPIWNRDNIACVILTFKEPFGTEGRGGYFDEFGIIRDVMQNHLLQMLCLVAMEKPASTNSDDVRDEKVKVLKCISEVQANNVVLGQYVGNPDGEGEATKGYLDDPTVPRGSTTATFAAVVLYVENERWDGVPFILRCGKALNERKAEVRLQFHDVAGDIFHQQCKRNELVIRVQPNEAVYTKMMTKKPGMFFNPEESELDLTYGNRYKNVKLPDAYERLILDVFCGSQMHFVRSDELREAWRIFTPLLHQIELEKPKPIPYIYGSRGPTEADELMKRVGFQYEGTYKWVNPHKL
smiles,measurement,setting,value
"N#Cc1cc(Nc2ncc3c(n2)CCCCC3=O)cs1 [Compound 2, 4-([5-oxo-6H,7H,8H,9H-cyclohepta[d]pyrimidin-2-yl]amino)thiophene-2-carbonitrile]",colony formation,colony formation,dose-dependent decrease
same,reactive oxygen species,CD8+ and CD4+ T cells,elevated reactive oxygen species
same,cytokine production,"[1]; CD8+ and CD4+ T cells, PMA and ionomycin, 6 h",blocked cytokine production
same,IFNγ mRNA,[1]; active CD8+ T cells,decreased
same,formation and proliferation of Foxp3+ cells,[2],unaffected
same,oxidative burst (oxygen consumption rate),mouse neutrophils,decreased oxidative burst
same,6-pg production by recombinant human G6PD,G6PD,demonstrated in vitro inhibition of G6PD activity
